Experiments:
[1] = target: T1, rat mGlu2 receptor (Rattus norvegicus, UniProt P31421); assay: [3H]-LY354740 binding on mGlu2 transfected CHO cell membranes; settings: inhibition of 10 nM [3H]-LY354740 binding, membranes of CHO cells transfected with rat mGlu2, room temperature, 1 hour
T1 construct: expressed in transfected cells; membranes prepared
Source text: [^3H]-LY354740 Binding on mGlu2 Transfected CHO Cell Membranes. Transfection and Cell Culture
cDNA encoding the rat mGlu2 receptor protein in pBluescript II was subcloned into the eukaryotic expression vector pcDNA I-amp from Invitrogen Ltd (Paisley, UK). This vector construct (pcD1mGR2) was co-transfected with a psvNeo plasmid encoding the gene for neomycin resistance, into CHO cells by a modified calcium phosphate method described by Chen & Okayama (1988). The cells were maintained in Dulbecco's Modified Eagle medium with reduced L-glutamine (1 mM final concentration), 36 mg/L L-Proline and 10% dialysed foetal calf serum from Gibco-Invitrogen; the medium was supplemented with 500 microM α-methyl-4-carboxyphenylglycine (MCPG). Selection was made in the presence of G-418 (300 ug/ml final concentration). Clones were identified by reverse transcription of 5 μg total RNA, followed by PCR using mGlu2 receptor specific primers 5′-[…]-3′ and 5′-[…]-3′ in 60 mM Tris HCl (pH 10), 15 mM (NH4)2SO4, 2 mM MgCl2, 25 units/ml Taq Polymerase with 30 cycles annealing at 60° C. for 1 min., extention at 72° C. for 30 s, and 1 min. 95° C. denaturation.
Cells, cultured as above, were harvested and washed three times with cold PBS and frozen at −80° C. The pellet was resuspended in cold 20 mM HEPES-NaOH buffer containing 10 mM EDTA (pH 7.4), and homogenised with a polytron (Kinematica, A G, Littau, Switzerland) for 10 s at 10 000 rpm. After centrifugation for 30 min. at 4° C., the pellet was washed once with cold 20 mM HEPES-NaOH buffer containing 0.1 mM EDTA, (pH 7.4). After a second centrifugation for 30 min. at 4° C. the pellet was resuspended in cold 20 mM HEPES-NaOH buffer containing 0.1 mM EDTA, (pH 7.4). Protein content was measured using the Micro BCA method from Pierce-Perbio (Rockford, Ill., USA) using bovine serum albumin as standard.
After thawing, the membranes were resuspended in cold 50 mM Tris-HCl buffer containing 2 mM MgCl2 (pH 7.4) (binding buffer). The final concentration of the membranes in the assays was 25 μg protein/ml. Inhibition experiments were performed with membranes incubated with 10 nM [^3H]-LY354740 at room temperature, for 1 hour, in presence of various concentrations of the compound to be tested. Following the incubations, membranes were filtered onto Whatmann GF/B glass fiber filters or onto GF/B Unifilter plates and washed 5 times with cold binding buffer. Non specific binding was measured in the presence of 10 μM (2S,2′R,3′R)-2-(2′3′-Dicarboxycyclopropyl)glycine (DCG IV from Tocris, Ellisville, Mo. USA). After transfer of the filters into plastic vials containing 10 ml of Ultima-gold scintillation fluid from Perkin-Elmer (Boston, Mass., USA), the radioactivity was measured by liquid scintillation in a Tri-Carb 2500 TR counter (Packard, Zürich, Switzerland). For 96-Unifilter plates the radioactivity was measured after addition of Microscint 40 scintillation fluid (Perkin Elmer, Boston Mass.) using a TopCount NXT (Packard)
The inhibition curves were fitted with a four parameter logistic equation giving IC50 values, and Hill coefficients.

T1 sequence (P31421 19-872): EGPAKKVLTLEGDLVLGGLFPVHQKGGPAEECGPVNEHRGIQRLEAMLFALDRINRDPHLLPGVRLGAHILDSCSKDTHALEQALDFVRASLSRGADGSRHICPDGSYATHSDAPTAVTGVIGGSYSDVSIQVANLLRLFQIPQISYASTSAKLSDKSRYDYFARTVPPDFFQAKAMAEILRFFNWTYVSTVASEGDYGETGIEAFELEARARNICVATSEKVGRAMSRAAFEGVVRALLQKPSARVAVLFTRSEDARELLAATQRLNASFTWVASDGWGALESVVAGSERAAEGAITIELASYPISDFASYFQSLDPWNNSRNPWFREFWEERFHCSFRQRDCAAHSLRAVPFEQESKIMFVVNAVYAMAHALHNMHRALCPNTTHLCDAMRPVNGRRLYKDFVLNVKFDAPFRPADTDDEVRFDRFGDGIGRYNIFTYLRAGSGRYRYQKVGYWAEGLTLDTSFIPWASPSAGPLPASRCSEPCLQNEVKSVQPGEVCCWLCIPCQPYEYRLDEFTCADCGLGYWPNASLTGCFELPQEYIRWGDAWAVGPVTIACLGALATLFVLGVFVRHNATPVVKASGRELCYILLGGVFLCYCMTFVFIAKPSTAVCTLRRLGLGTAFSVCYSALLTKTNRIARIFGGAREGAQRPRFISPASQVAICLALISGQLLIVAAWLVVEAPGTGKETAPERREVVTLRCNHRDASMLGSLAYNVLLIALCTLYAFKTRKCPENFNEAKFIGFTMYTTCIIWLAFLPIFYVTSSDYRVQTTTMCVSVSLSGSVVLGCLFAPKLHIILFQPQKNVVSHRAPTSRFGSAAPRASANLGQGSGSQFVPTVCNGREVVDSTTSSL

Compound: Nc1ncc(-c2cccc(-c3nc(-c4ccc(C(F)(F)F)c(OCC(F)(F)F)c4)cc(C(F)(F)F)n3)c2)cn1 [Example 138, 5-(3-{4-[3-(2,2,2-Trifluoro-ethoxy)-4-trifluoromethyl-phenyl]-6-trifluoromethyl-pyrimidin-2-yl}-phenyl)-pyrimidin-2-ylamine]
- Ki [1]: 28 nM
- melting point: 250 °C

Compound: FC(F)(F)c1ccc(-c2cc(C(F)(F)F)nc(-n3cnc(-c4ccncc4)n3)n2)cc1 [Example 148, 2-(3-Pyridin-4-yl-[1,2,4]triazol-1-yl)-4-trifluoromethyl-6-(4-trifluoromethyl-phenyl)-pyrimidine]
- Ki [1]: 49 nM
- melting point: 248 °C

Compound: CC(C)(C)NS(=O)(=O)c1cccc(-c2cccc(-c3nc(-c4ccc(C(F)(F)F)cc4)cc(C(F)(F)F)n3)c2)c1 [Example 155, 3′-[4-Trifluoromethyl-6-(4-trifluoromethyl-phenyl)-pyrimidin-2-yl]-biphenyl-3-sulfonic acid tert-butylamide]
- Ki [1]: 8.4 nM
- melting point: 200 °C

Compound: Nc1ncc(-c2cn(-c3nc(-c4cccc(Cl)c4)cc(C(F)(F)F)n3)cn2)cn1 [Example 187, 5-{1-[4-(3-Chloro-phenyl)-6-trifluoromethyl-pyrimidin-2-yl]-1H-imidazol-4-yl}-pyrimidin-2-ylamine]
- Ki [1]: 13.7 nM
- melting point: 281 °C

Compound: Cc1cc(-c2ccc(Cl)cc2)nc(-n2cnc(-c3cccc(S(C)(=O)=O)c3)c2)n1 [Example 210, 4-(4-Chloro-phenyl)-2-[4-(3-methanesulfonyl-phenyl)-imidazol-1-yl]-6-methyl-pyrimidine]
- Ki [1]: 23 nM
- melting point: 233 °C

Compound: CS(=O)(=O)c1cccc(-c2cc(-c3nc(-c4ccc(C(F)(F)F)cc4)cc(C(F)(F)F)n3)ccn2)c1 [Example 218, 2-[2-(3-Methanesulfonyl-phenyl)-pyridin-4-yl]-4-trifluoromethyl-6-(4-trifluoromethyl-phenyl)-pyrimidine]
- Ki [1]: 3 nM
- melting point: 238.5 °C

Compound: NS(=O)(=O)Nc1cccc(-c2cccc(-c3nc(-c4ccc(C(F)(F)F)cc4)cc(C(F)(F)F)n3)c2)c1 [Example 221, N-{3′-[4-Trifluoromethyl-6-(4-trifluoromethyl-phenyl)-pyrimidin-2-yl]-biphenyl-3-yl}-sulfamide]
- Ki [1]: 7 nM
- melting point: 174 °C

Compound: CN(C)S(=O)(=O)Nc1cccc(-c2cccc(-c3nc(-c4ccc(C(F)(F)F)cc4)cc(C(F)(F)F)n3)c2)c1 [Example 222, N-{3′-[4-Trifluoromethyl-6-(4-trifluoromethyl-phenyl)-pyrimidin-2-yl]-biphenyl-3-yl}-N′,N′-dimethyl-sulfamide]
- Ki [1]: 12.4 nM
- melting point: 113 °C

Compound: CS(=O)(=O)Nc1cccc(-c2cccc(-c3nc(-c4ccc(C(F)(F)F)cc4)cc(C(F)(F)F)n3)c2)c1 [Example 223, N-{3′-[4-Trifluoromethyl-6-(4-trifluoromethyl-phenyl)-pyrimidin-2-yl]-biphenyl-3-yl}-methanesulfonamide]
- Ki [1]: 13 nM
- melting point: 191 °C

Compound: Cc1cn(-c2cccc(-c3cc(-c4ccc(C(F)(F)F)cc4)cc(C)n3)c2)cn1 [Example 227, 2-Methyl-6-[3-(4-methyl-imidazol-1-yl)-phenyl]-4-(4-trifluoromethyl-phenyl)-pyridine]
- Ki [1]: 34 nM
- melting point: 126 to 132 °C

Compound: Cc1cc(-c2ccc(C(F)(F)F)cc2)cc(-c2nc(-c3cccc(S(N)(=O)=O)c3)no2)n1 [Example 237, 3-{5-[6-Methyl-4-(4-trifluoromethyl-phenyl)-pyridin-2-yl]-[1,2,4]oxadiazol-3-yl}-benzenesulfonamide]
- Ki [1]: 4 nM
- melting point: 277 °C

Compound: Cc1cc(-c2ccc(C(F)(F)F)cc2)cc(-c2cccc(C#N)c2)n1 [Example 242, 3-[6-Methyl-4-(4-trifluoromethyl-phenyl)-pyridin-2-yl]-benzonitrile]
- Ki [1]: 42 nM
- melting point: 140 °C

Compound: NS(=O)(=O)c1cccc(-c2noc(-c3cc(C(F)(F)F)cc(-c4ccc(C(F)(F)F)cc4)n3)n2)c1 [Example 243, 3-{5-[4-Trifluoromethyl-6-(4-trifluoromethyl-phenyl)-pyridin-2-yl]-[1,2,4]oxadiazol-3-yl}-benzenesulfonamide]
- Ki [1]: 3 nM
- melting point: 211 °C

Compound: NS(=O)(=O)c1cccc(-c2cccc(-c3cc(-c4ccc(C(F)(F)F)cc4)cc(C(F)(F)F)n3)c2)c1 [Example 244, 3′-[6-Trifluoromethyl-4-(4-trifluoromethyl-phenyl)-pyridin-2-yl]-biphenyl-3-sulfonic acid amide]
- Ki [1]: 5 nM
- melting point: 187 °C

Compound: Cc1cc(-c2ccc(Cl)c(Cl)c2)cc(-n2ccnc2)n1 [Example 247, 4-(3,4-Dichloro-phenyl)-2-imidazol-1-yl-6-methyl-pyridine]
- Ki [1]: 41 nM
- melting point: 227 °C

Compound: Cc1cc(-c2ccc(Cl)c(Cl)c2)cc(-c2cccc(-c3ccc(N)nc3)c2)n1 [Example 249, 5-{3-[4-(3,4-Dichloro-phenyl)-6-methyl-pyridin-2-yl]-phenyl}-pyridin-2-ylamine]
- Ki [1]: 9 nM
- melting point: 99 °C (dec.)

Compound: Cc1cc(-c2ccc(C(F)(F)F)cc2)cc(-c2cccc(-c3cc(S(N)(=O)=O)c(F)cc3F)c2)n1 [Example 270, 4,6-Difluoro-3′-[6-methyl-4-(4-trifluoromethyl-phenyl)-pyridin-2-yl]-biphenyl-3-sulfonic acid amide]
- Ki [1]: 6 nM
- melting point: 227 °C

Compound: Cc1cc(-c2ccc(C(F)(F)F)cc2)cc(-c2cccc(-c3ccc(S(N)(=O)=O)s3)c2)n1 [Example 271, 5-{3-[6-Methyl-4-(4-trifluoromethyl-phenyl)-pyridin-2-yl]-phenyl}-thiophene-2-sulfonic acid amide]
- Ki [1]: 3 nM
- melting point: 215 °C

Compound: Cc1cc(-c2ccc(C(F)(F)F)cc2)nc(-c2cccc(-c3ccc(S(=O)(=O)NC(C)(C)C)s3)c2)c1 [Example 272, 5-{3-[4-Methyl-6-(4-trifluoromethyl-phenyl)-pyridin-2-yl]-phenyl}-thiophene-2-sulfonic acid tert-butylamide]
- Ki [1]: 80 nM
- melting point: 156 °C

Compound: Cc1cc(-c2ccc(C(F)(F)F)cc2)nc(-c2cccc(-c3cccc(S(N)(=O)=O)c3)c2)c1 [Example 274, 3′-[4-Methyl-6-(4-trifluoromethyl-phenyl)-pyridin-2-yl]-biphenyl-3-sulfonic acid amide]
- Ki [1]: 4 nM
- melting point: 200 °C

Compound: Cc1cc(-c2ccc(C(F)(F)F)cc2)nc(-c2cccc(-c3cncc(S(N)(=O)=O)c3)c2)c1 [Example 275, 5-{3-[4-Methyl-6-(4-trifluoromethyl-phenyl)-pyridin-2-yl]-phenyl}-pyridine-3-sulfonic acid amide]
- Ki [1]: 87 nM
- melting point: 217 °C

Compound: Cc1nc(-c2cn(-c3cc(C(F)(F)F)cc(-c4ccc(C(F)(F)F)cc4)n3)cn2)sc1S(=O)(=O)NC(C)(C)C [Example 292, 4-Methyl-2-{1-[4-trifluoromethyl-6-(4-trifluoromethyl-phenyl)-pyridin-2-yl]-1H-imidazol-4-yl}-thiazole-5-sulfonic acid tert-butylamide]
- Ki [1]: 28 nM
- melting point: > 250 °C

Compound: Cc1nc(-c2cn(-c3cc(C(F)(F)F)cc(-c4ccc(C(F)(F)F)cc4)n3)cn2)sc1S(N)(=O)=O [Example 294, 4-Methyl-2-{1-[4-trifluoromethyl-6-(4-trifluoromethyl-phenyl)-pyridin-2-yl]-1H-imidazol-4-yl}-thiazole-5-sulfonic acid amide]
- Ki [1]: 13 nM
- melting point: 187 °C (dec.)

Compound: Cc1cc(-c2ccc(C(F)(F)F)cc2)cc(-c2ccnc(-c3cccc([N+](=O)[O-])c3)c2)n1 [Example 306, 6-Methyl-2′-(3-nitro-phenyl)-4-(4-trifluoromethyl-phenyl)-[2,4′]bipyridinyl]
- Ki [1]: 38 nM
- melting point: 164 °C
